Results: US9415055B2, “Cyclic amines” (H. Lundbeck A/S, priority 2012, dated 2016)

target: P2X7 receptor (Homo sapiens (Human), UniProt Q99572); assay: P2X7 FLIPR assay: antagonism of BzATP response in 293 HEK cells stably expressing P2X7 receptor; type: cell-based; conditions: FLIPR fluorescence (Fluo-4), agonist BzATP, 293 HEK cells stably transfected with P2X7 receptor
Method: Cells were plated to cell density of approximately 15,000 cells/well in 384-well assay plates (50 μl/well) with 1.5% low serum media (DMEM, 1.5% BCS, 1% L-glut (2 mM), 1% P/S).
Cells were plated to cell density of approximately 15,000 cells/well in 384-well assay plates (50 μl/well) with 1.5% low serum media (DMEM, 1.5% FBS, 1% L-glut (2 mM), 10 mM HEPES, 1% P/S). Cells were plated 24 hours prior to assay. Cells expressing human, rat or mouse P2X7 receptor were assayed in the following manner.
Fluo-4 NW dye mix (Molecular Probes, Inc., Eugene, Oreg., USA) was prepared in buffer (see manufacturer's instructions). Cell plates were removed from the 37° C. incubator, the media discarded and then 30 μL of dye was added to each well. Plates were placed in the 37° C., non-CO2 incubator for 30 minutes and then room temperature for 30 minutes.
Compound mixtures (A) were added to assay plates containing cells and placed at room temperature for 30 minutes, then BzATP (B) was added. Fluorescence was read using the Tetra FLIPR® (Molecular Devices, Inc., Sunnyvale, Calif., USA) and IC50 values were calculated by standard methods to determine antagonist activity.

Sequence of P2X7 receptor (Q99572 whole entry): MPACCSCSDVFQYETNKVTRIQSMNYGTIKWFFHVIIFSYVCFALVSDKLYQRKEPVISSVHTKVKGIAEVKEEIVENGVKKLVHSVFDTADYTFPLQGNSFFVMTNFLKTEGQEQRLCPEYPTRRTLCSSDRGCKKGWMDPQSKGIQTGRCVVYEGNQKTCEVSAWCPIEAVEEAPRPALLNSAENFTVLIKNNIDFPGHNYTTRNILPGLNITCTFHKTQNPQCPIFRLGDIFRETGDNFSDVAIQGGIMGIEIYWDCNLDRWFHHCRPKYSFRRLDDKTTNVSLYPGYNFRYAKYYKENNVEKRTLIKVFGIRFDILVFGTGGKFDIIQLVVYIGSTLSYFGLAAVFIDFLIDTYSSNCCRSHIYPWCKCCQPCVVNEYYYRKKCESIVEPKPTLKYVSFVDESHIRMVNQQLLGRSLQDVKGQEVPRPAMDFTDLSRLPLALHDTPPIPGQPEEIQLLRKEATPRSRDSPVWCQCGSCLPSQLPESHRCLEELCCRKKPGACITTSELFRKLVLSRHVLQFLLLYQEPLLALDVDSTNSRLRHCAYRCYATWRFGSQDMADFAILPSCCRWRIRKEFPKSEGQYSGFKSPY

IC50 | Compound
19 nM | Cc1ncc(C(CNC(=O)c2c(F)cccc2Cl)N2CCC(F)(F)CC2)cn1 (single isomer, unassigned; (+)) [(+)2-chloro-N-[2-(4,4-difluoro-1-piperidyl)-2-(2-methylpyrim] [(+)2-chloro-6-fluoro-N-(2-(4,4-difluoropiperidin-1-yl)-2-(2-methylpyrimidin-5-yl)ethyl)benzamide]
21 nM | Cc1ncc(C(CNC(=O)c2cccc(OC(F)(F)F)c2Cl)N2CCC(F)(F)CC2)cn1 (single isomer, unassigned; (+)) [(+)2-chloro-N-[2-(4,4-difluoro-1-piperidyl)-2-(2-methylpyrim] [(+)2-chloro-N-(2-(4,4-difluoropiperidin-1-yl)-2-(2-methylpyrimidin-5-yl)ethyl)-3-(trifluoromethoxy)benzamide]
13 nM | Cc1ncc(C(CNC(=O)c2ccccc2Cl)N2CCC(F)(F)CC2)cn1 (single isomer, unassigned; (+)) [(+)2-chloro-N-[2-(4,4-difluoro-1-piperidyl)-2-(2-methylpyrim] [(+)2-chloro-N-[2-(4,4-difluoro-1-piperidyl)-2-(2-methylpyrimidin-5-yl)ethyl]benzamide]
33 nM | Cc1ccc(C(CNC(=O)c2cccc(F)c2Cl)N2CCC(F)(F)CC2)cn1 (single isomer, unassigned; (+)) [(+)2-chloro-N-[2-(4,4-difluoro-1-piperidyl)-2-(6-methyl-3-py] [(+)2-chloro-3-fluoro-N-(2-(4,4-difluoropiperidin-1-yl)-2-(2-methylpyridin-5-yl)ethyl)benzamide]
110 nM | Cc1ccc(C(CNC(=O)c2c(F)cccc2Cl)N2CCC(F)(F)CC2)cn1 (single isomer, unassigned; (+)) [(+)2-chloro-N-[2-(4,4-difluoro-1-piperidyl)-2-(6-methyl-3-py] [(+)2-chloro-N-(2-(4,4-difluoropiperidin-1-yl)-2-(6-methylpyridin-3-yl)ethyl)-6-fluorobenzamide]
14 nM | COc1ccc(C(=O)NCC(c2cnc(C(F)(F)F)nc2)N2CCC(F)(F)CC2)c(Cl)c1OC (single isomer, unassigned; (+)) [(+)2-chloro-N-[2-(4,4-difluoro-1-piperidyl)-2-[2-(trifluorom] [(+)2-chloro-3,4-dimethoxy-N-(2-(4,4-difluoropiperidin-1-yl)-2-(2-(trifluoromethyl)pyrimidin-5-yl)ethyl)benzamide]
9.4 nM | O=C(NCC(c1cnc(C(F)(F)F)nc1)N1CCC(F)(F)CC1)c1c(F)cc(F)cc1Cl (single isomer, unassigned; (+)) [(+)2-chloro-N-[2-(4,4-difluoro-1-piperidyl)-2-[2-(trifluorom] [(+)2-chloro-4,6-difluoro-N-(2-(4,4-difluoropiperidin-1-yl)-2-(2-(trifluoromethyl)pyrimidin-5-yl)ethyl)benzamide]
8.3 nM | O=C(NCC(c1cnc(C(F)(F)F)nc1)N1CCC(F)(F)CC1)c1c(F)cccc1Cl (single isomer, unassigned; (+)) [(+)2-chloro-N-[2-(4,4-difluoro-1-piperidyl)-2-[2-(trifluorom] [(+)2-chloro-6-fluoro-N-(2-(4,4-difluoropiperidin-1-yl)-2-(2-(trifluoromethyl)pyrimidin-5-yl)ethyl)benzamide]
1.7 nM | O=C(NCC(c1cnc(C(F)(F)F)nc1)N1CCC(F)(F)CC1)c1cccc(F)c1Cl (single isomer, unassigned; (+)) [(+)2-chloro-N-[2-(4,4-difluoro-1-piperidyl)-2-[2-(trifluorom] [(+)2-chloro-N-(2-(4,4-difluoropiperidin-1-yl)-2-(2-(trifluoromethyl)pyrimidin-5-yl)ethyl)-3-fluorobenzamide]
3.6 nM | COc1cccc(C(=O)NCC(c2cnc(C(F)(F)F)nc2)N2CCC(F)(F)CC2)c1Cl (single isomer, unassigned; (+)) [(+)2-chloro-N-[2-(4,4-difluoro-1-piperidyl)-2-[2-(trifluorom] [(+)2-chloro-N-(2-(4,4-difluoropiperidin-1-yl)-2-(2-(trifluoromethyl)pyrimidin-5-yl)ethyl)-3-methoxybenzamide]
8.9 nM | COc1ccc(F)c(C(=O)NCC(c2cnc(C(F)(F)F)nc2)N2CCC(F)(F)CC2)c1Cl (single isomer, unassigned; (+)) [(+)2-chloro-N-[2-(4,4-difluoro-1-piperidyl)-2-[2-(trifluorom] [(+)2-chloro-N-(2-(4,4-difluoropiperidin-1-yl)-2-(2-(trifluoromethyl)pyrimidin-5-yl)ethyl)-6-fluoro-3-methoxybenzamide]
1.7 nM | O=C(NCC(c1ccc(C(F)(F)F)nc1)N1CCC(F)(F)CC1)c1cccc(F)c1Cl (single isomer, unassigned; (+)) [(+)2-chloro-N-[2-(4,4-difluoro-1-piperidyl)-2-[6-(trifluorom] [(+)2-chloro-N-(2-(4,4-difluoropiperidin-1-yl)-2-(2-(trifluoromethyl)pyridin-5-yl)ethyl)-3-fluorobenzamide]
4.2 nM | COc1cccc(C(=O)NCC(c2ccc(Cl)cc2)N2CCOCC2)c1Cl (single isomer, unassigned; (+)) [(+)2-chloro-N-[2-(4-chlorophenyl)-2-morpholino-ethyl]-3-meth] [(+)2-chloro-N-(2-(4-chlorophenyl)-2-morpholinoethyl)-3-methoxybenzamide]
23 nM | N#Cc1ccc(Cl)c(C(=O)NCC(c2ccc(Cl)cc2)N2CCOCC2)c1 (single isomer, unassigned; (+)) [(+)2-chloro-N-[2-(4-chlorophenyl)-2-morpholino-ethyl]-5-cyan] [(+)2-chloro-N-(2-(4-chlorophenyl)-2-morpholinoethyl)-5-cyanobenzamide]
180 nM | CS(=O)(=O)c1ccc(Cl)c(C(=O)NCC(c2ccc(Cl)cc2)N2CCOCC2)c1 (single isomer, unassigned; (+)) [(+)2-chloro-N-[2-(4-chlorophenyl)-2-morpholino-ethyl]-5-meth] [(+)2-chloro-N-(2-(4-chlorophenyl)-2-morpholinoethyl)-5-(methylsulfonyl)benzamide]
50 nM | Cc1ncc(C(CNC(=O)c2ccccc2Cl)N2CCC(F)CC2)cn1 (single isomer, unassigned; (+)) [(+)2-chloro-N-[2-(4-fluoro-1-piperidyl)-2-(2-methylpyrimidin] [(+)2-chloro-N-(2-(4-fluoropiperidin-1-yl)-2-(2-methylpyrimidin-5-yl)ethyl)benzamide]
15 nM | O=C(NCC(c1cnc(C(F)(F)F)nc1)N1CCC(F)CC1)c1ccccc1Cl (single isomer, unassigned; (+)) [(+)2-chloro-N-[2-(4-fluoro-1-piperidyl)-2-[2-(trifluoromethy] [(+)2-chloro-N-(2-(4-fluoropiperidin-1-yl)-2-(2-(trifluoromethyl)pyrimidin-5-yl)ethyl)benzamide]
4.8 nM | O=C(NCC(c1cnc(C(F)F)nc1)N1CCOCC1)c1cccc(F)c1Cl (single isomer, unassigned; (+)) [(+)2-chloro-N-[2-[2-(difluoromethyl)pyrimidin-5-yl]-2-morpho] [(+)2-chloro-3-fluoro-N-(2-(2-(difluoromethyl)pyrimidin-5-yl)-2-morpholinoethyl)benzamide]
60 nM | O=C(NCC(c1cnc(C(F)F)nc1)N1CCOCC1)c1ccccc1Cl (single isomer, unassigned; (+)) [(+)2-chloro-N-[2-[2-(difluoromethyl)pyrimidin-5-yl]-2-morpho] [(+)2-chloro-N-(2-(2-(difluoromethyl)pyrimidin-5-yl)-2-morpholinoethyl)benzamide]
2.3 nM | COc1cccc(C(=O)NCC(c2ccc(C(F)F)nc2)N2CCC(F)(F)CC2)c1Cl (single isomer, unassigned; (+)) [(+)2-chloro-N-[2-[6-(difluoromethyl)-3-pyridyl]-2-(4,4-diflu] [(+)2-chloro-3-methoxy-N-(2-(2-(difluoromethyl)pyridin-5-yl)-2-(4,4-difluoropiperidin-1-yl)ethyl)benzamide]
9 nM | O=C(NCC(c1ccc(C(F)F)nc1)N1CCC(F)(F)CC1)c1ccccc1Cl (single isomer, unassigned; (+)) [(+)2-chloro-N-[2-[6-(difluoromethyl)-3-pyridyl]-2-(4,4-diflu] [(+)2-chloro-N-(2-(2-(difluoromethyl)pyridin-5-yl)-2-(4,4-difluoropiperidin-1-yl)ethyl)benzamide]
17 nM | O=C(NCC(c1cnc(C(F)(F)F)nc1)N1CCOCC1)c1cccc(C(F)(F)F)c1Cl (single isomer, unassigned; (+)) [(+)2-chloro-N-[2-morpholino-2-[2-(trifluoromethyl)pyrimidin-] [(+)2-Chloro-N-[2-morpholino-2-[2-(trifluoromethyl)pyrimidin-5-yl]ethyl]-3-(trifluoromethyl)benzamide]
30 nM | O=C(NCC(c1cnc(C(F)(F)F)nc1)N1CCOCC1)c1ccccc1Cl (single isomer, unassigned; (+)) [(+)2-chloro-N-[2-morpholino-2-[2-(trifluoromethyl)pyrimidin-] [(+)2-Chloro-N-[2-morpholino-2-[2-(trifluoromethyl)pyrimidin-5-yl]ethyl]benzamide]
